Results on 2 molecules are retold here after ChEMBL document CHEMBL1146319, “Design, synthesis, and in vivo evaluation of oxamniquine methacrylate and acrylamide prodrugs” (2007).

The structures appear in SMILES notation.

What all share (type): functional
Assay [1] concerns Schistosoma mansoni. The experiment in a line: Antiparasitic activity against Schistosoma mansoni BH cercareae infected Swiss mouse assessed as average number of eggs at 2 stage after 10 days by oogram test.
In assay [2] the test system is Schistosoma mansoni. Put plainly: Antiparasitic activity against Schistosoma mansoni BH cercareae infected Swiss mouse assessed as average number of eggs at 1 stage after 10 days by oogram test.
For assay [3], the system named is Schistosoma mansoni. The experiment in a line: Antiparasitic activity against Schistosoma mansoni BH cercareae infected Swiss mouse assessed as total number of worms after 10 days by mesenteric veins perfusion technique.
The test system of assay [4] is Schistosoma mansoni. The experiment in a line: Antiparasitic activity against Schistosoma mansoni BH cercareae infected Swiss mouse assessed as average number of eggs at 3 stage after 20 days by oogram test.
Assay [5] deals with Schistosoma mansoni. Put plainly: Antiparasitic activity against Schistosoma mansoni BH cercareae infected Swiss mouse as total numbers of worms after 20 days by mesenteric veins perfusion technique.
Assay [6] has as its system Schistosoma mansoni. Put plainly: Antiparasitic activity against Schistosoma mansoni BH cercareae infected Swiss mouse assessed as average number of eggs at 2 stage after 20 days by oogram test.
The subject of assay [7] is Schistosoma mansoni. The experiment in a line: Antiparasitic activity against Schistosoma mansoni BH cercareae infected Swiss mouse assessed as average number of eggs at 3 stage after 10 days by oogram test.
Assay [8] deals with Schistosoma mansoni. Put plainly: Antiparasitic activity against Schistosoma mansoni BH cercareae infected Swiss mouse assessed as average number of eggs at 1 stage after 20 days by oogram test.

Take `C=C(C)C(=O)OCc1cc2c(cc1[N+](=O)[O-])NC(CNC(C)C)CC2` (stereo unspecified) [OXAMNIQUINE ACRYLAMIDE]: the Activity worked out at 0.11 with Schistosoma mansoni [1]; 0 in the assay with Schistosoma mansoni [2]; 48 in the assay on Schistosoma mansoni [3]; 0.27 in the assay with Schistosoma mansoni [4]; 39 in the assay with Schistosoma mansoni [5]; 0.09 with Schistosoma mansoni [6]. For the same molecule, the Activity stood at 0.22 with Schistosoma mansoni [7] and 0 with Schistosoma mansoni [8].
With `CC(C)NCC1CCc2cc(CO)c([N+](=O)[O-])cc2N1` (stereo unspecified) [OXAMNIQUINE], the Activity in the assay on Schistosoma mansoni [1] is on record as 0; with Schistosoma mansoni [2], 0; in the assay on Schistosoma mansoni [3], 3; in the assay with Schistosoma mansoni [4] it was 0; with Schistosoma mansoni [5] it was 13; with Schistosoma mansoni [6] it was 0. The Activity in the assay with Schistosoma mansoni [7] and with Schistosoma mansoni [8] was 0 each time.
